Reference: patent US5624928A, “Method of synthesizing an endonuclease inhibitor and analogs thereof” (priority 1994, dated 1997)

Biological target: transcription apparatus of the influenza virus (Influenza A virus, UniProt P03433)
Test: in vitro influenza transcription assay
Assay type: biochemical

Row | SMILES | IC50 [µM] | IC50 in flu transcription assay (compared with the natural product)
1 | CC(C)CC1=N/C(=C\c2ccccc2)C(=O)N(O)C1=O [Example 8, 1-(N-hydroxy)-3-(2-methyl-propyl)-5-(Z-benz-1-enyl)-2.6-diketopiperazine-3,4-ene] | 4.8 | 
2 | O=C1C(Cc2ccc(F)cc2)=N/C(=C\c2ccccc2)C(=O)N1O [Example 15B] | 6.5 | 
3 | COc1ccc(/C=C2\N=C(Cc3ccccc3)C(=O)N(O)C2=O)cc1 [Example 14, 1-(N-hydroxy)-3-(benzyl)-5-(Z-p-methoxybenz-1-enyl)-2,6-diketopiperazine-3,4-ene] | 2.8 | 
4 | COc1ccc(/C=C2\N=C(CC(C)C)C(=O)N(O)C2=O)cc1 [Example 12, 1-(N-hydroxy)-3-(2-methyl-propyl)-5-(Z-p-methoxybenz-1-enyl)-2,6-diketopiperazine-3,4-ene] | 0.8 | 
5 | CC(C)CC1=N/C(=C\c2ccccc2F)C(=O)N(O)C1=O [Example 10, 1-(N-hydroxy)-3-(2-methyl-propyl)-5-(Z-o-fluorobenz-1-enyl)-2,6-diketopiperazine-3,4-ene] | 7.3 | 
6 | CC(C)CC1NC(Cc2ccc(F)cc2)C(=O)N(O)C1=O (centres unmarked) [Example 16] | 85 | 
7 | CC(C)CC1=N/C(=C\c2ccc(F)cc2)C(=O)N(O)C1=O [Example 9, 1-(N-hydroxy)-3-(2-methyl-propyl)-5-(Z-p-fluorobenz-1-enyl)-2.6-diketopiperazine-3.4-ene] | 0.9 | 
8 | O=C1C(Cc2ccccc2)=N/C(=C\c2ccc(F)cc2)C(=O)N1O [Example 15A, 1-(N-hydroxy)-3-(benzyl)-5-(Z-p-fluoro-benz-1-enyl)-2,6-diketopiperazine-3,4-ene] | 3.5 | 
9 | CC(C)CC1=N/C(=C\c2cccc(F)c2)C(=O)N(O)C1=O [Example 11, 1-(N-hydroxy)-3-(2-methyl-propyl)-5-(Z-m-fluorobenz-1-enyl)-2,6-diketopiperazine-3,4-ene] | 1.5 | 
10 | CC(C)/C=C1\N=C(CC(C)C)C(=O)N(O)C1=O [Compound I, 1-(N-hydroxy)-3-(2-methyl-propyl)-5-(2-methyl-Z-prop-1-enyl)-2,6-diketopiperazine-3,4-ene] | 5 | same IC50
